One assay deals with Stat3. Kind of assay: IL-6-induced phosphorylation of Stat3 (tyrosine-705, serine-727) in HepG2 cells, immunoprecipitation/Western blot. Conditions: HepG2, IL-6 50 ng/ml; all concentrations tested, up to 16 μg/ml, equivalent to 165 μM. The assay is classed as cell-based, human. The source says:
A crucial step in IL-6-dependent intracellular signal transduction is the phosphorylation of tyrosine-705 in Stat3 and tyrosine-701 in Stat1. […] However, inhibitors which inhibit the Stat3 and Stat1 phosphorylation also have crucial effects on other signal cascades, and therefore pharmaceutically usable inhibitors of IL-6-dependent gene expression should, in the concentration range in which they display their pharmacological effect, affect the Stat3 or Stat1 phosphorylation only slightly or not at all.
Seed out HepG2 cells in Petri dishes (diameter: 10 cm) (OptiMEM medium with 10% fetal calf serum and penicillin/streptomycin (100 iu) cell density: 5×10^5 cell/ml). Incubate in a moist atmosphere with 5% CO2 at 37° C. for 24 h. Replace medium by fresh OptiMEM medium with 0.5% fetal calf serum and penicillin/streptomycin (100 iu) and incubate for a further 48 h. Replace medium by fresh OptiMEM medium with 0.5% fetal calf serum and penicillin/streptomycin (100 iu), add test substances in various concentrations, and incubate for 60 min. 5 μl of the substances dissolved in ethanol, or only ethanol (controls), were added per mixture (10 ml). Induce cells by adding IL-6 (final concentrations 50 ng/ml).
After 20 min. remove medium and wash cell lawn twice wtih 1.5 ml of ice-cold PBS (137 mM NaCl, 2.7 mM KCl, 8.1 mM Na2HPO4×2H2O, 1.5 mM KH2PO4) each time. […]
In general terms: In western blotting, separated proteins are transferred to a membrane and probed.

The test system of assay [1] is 6-hydroxydopamine lesion of the substantia nigra. Kind of assay: 6-Hydroxydopamine (6-OH-DA) lesion in the rat, staircase test (forepaw coordination). The assay is classed as in vivo. Conditions: bid, i.p.

On to `C[C@H]1C=C2C(=O)O[C@H]3CC[C@@H](C1)[C@@]23O` [galiella lactone], for which the “effect on the phosphorylation of Stat3” value in the assay on Stat3 was “no effect”. Also, the “fine motor control of the forepaws (staircase test)” value in assay [1] (1.0 mg/kg) and in assay [1] (3.0 mg/kg) was “improved” in each case.
